Laboratory results reported in publication PMC6095690, “Coalescing beneficial host and deleterious antiparasitic actions as an antischistosomal strategy” (eLife, 2018).
Like-named read-outs stand apart in the source and are kept apart here.

How the values were obtained:
[1] = test system: parental HEK293 cell line expressing the GloSensor 22F cAMP sensor and lacking Sm.5HTRL; test: counter-screen of agonist hits: basal cAMP luminescence in parental reporter line; assay type: cell-based
Sm.5HTRL [2] = biological target: T1, Sm.5HTRL (Schistosoma mansoni, UniProt A0A173FEI8)
T1 sequence (A0A173FEI8 1-547): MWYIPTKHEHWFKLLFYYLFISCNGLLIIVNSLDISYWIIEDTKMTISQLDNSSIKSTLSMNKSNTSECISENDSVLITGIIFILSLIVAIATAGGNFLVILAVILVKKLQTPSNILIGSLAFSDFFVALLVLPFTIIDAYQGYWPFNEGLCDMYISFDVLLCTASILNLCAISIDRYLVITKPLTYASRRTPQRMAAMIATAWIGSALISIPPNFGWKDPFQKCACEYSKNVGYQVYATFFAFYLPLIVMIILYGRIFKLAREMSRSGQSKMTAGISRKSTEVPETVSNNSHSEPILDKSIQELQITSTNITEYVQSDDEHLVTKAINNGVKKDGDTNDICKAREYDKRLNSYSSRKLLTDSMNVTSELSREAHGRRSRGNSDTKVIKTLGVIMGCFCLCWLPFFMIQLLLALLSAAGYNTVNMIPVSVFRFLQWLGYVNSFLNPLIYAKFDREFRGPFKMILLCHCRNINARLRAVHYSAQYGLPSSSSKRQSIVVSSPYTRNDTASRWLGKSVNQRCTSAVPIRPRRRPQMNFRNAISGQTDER

Sm.5HTRL [3] = biological target: T1, Sm.5HTRL; test: cell-based; conditions: for fold induction at 10 µM: HEK293, read-out: Sm.5HTRL agonism (fold change luminescence)
[4] = test system: adult S. mansoni parasites; test: adult worm movement assay ex vivo; design: species or system Schistosoma mansoni; conditions: ex vivo
Sh.5HTR = Sh.5HTR (Schistosoma haematobium, UniProt A0A922S615); assay type: cell-based; conditions: receptor transiently transfected into stable HEK293 cAMP reporter line; read-out: EC50 of cAMP luminescence response
[5] = test system: adult S. mansoni male and female pairs; test: egg laying assay of worm pairs cultured ex vivo; conditions: 100 µM, five days
immature S. mansoni = test: movement of immature worms harvested 4 weeks post infection, ex vivo; design: species or system Schistosoma mansoni; conditions: male worms 4 weeks post infection
Description: Figure 6. […] Figure 6—figure supplement 1. […] Scale = 50 µm. [drawing 7]

Sj.5HTR = Sj.5HTR (Schistosoma japonicum, UniProt A0A346LTY2); test: cell-based
Sj.5HTR, sequence (A0A346LTY2 entry or part of it): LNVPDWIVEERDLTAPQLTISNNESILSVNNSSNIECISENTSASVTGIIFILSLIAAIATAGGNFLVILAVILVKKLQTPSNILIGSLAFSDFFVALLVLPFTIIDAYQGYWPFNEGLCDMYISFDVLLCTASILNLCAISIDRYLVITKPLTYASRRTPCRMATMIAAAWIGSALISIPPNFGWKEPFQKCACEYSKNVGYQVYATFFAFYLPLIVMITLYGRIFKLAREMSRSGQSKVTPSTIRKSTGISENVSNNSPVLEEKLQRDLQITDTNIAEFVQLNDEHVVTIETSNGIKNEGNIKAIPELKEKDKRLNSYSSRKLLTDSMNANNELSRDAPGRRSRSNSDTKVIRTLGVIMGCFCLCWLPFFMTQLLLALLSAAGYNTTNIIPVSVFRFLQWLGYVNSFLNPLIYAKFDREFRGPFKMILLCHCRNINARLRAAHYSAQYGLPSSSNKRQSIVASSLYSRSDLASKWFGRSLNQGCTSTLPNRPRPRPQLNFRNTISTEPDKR

liver signaling pathways = test: Ingenuity Pathway Analysis of transcripts differentially expressed in drug treated livers relative to control infections; assay type: in vivo, mouse
[6] = test system: S. mansoni (mature infection in Swiss Webster mice); test: curative efficacy against mature infection in mice (survival, worm burden, egg counts, organ weights)
[7] = test system: immature S. mansoni (infection in mice); test: curative efficacy against immature infection in mice (dosing weeks 3-4 post infection); conditions: dosing 3–4 weeks post infection, worm burden at 7 weeks; ERG 60 mg/kg, PZQ 50 mg/kg
[8] = agonist hit counter screen, cells lacking Sm.5HTRL
[9] = primary screen, compound 10 µM then 5-HT 1 µM, 384 well, single replicate

**Q.** What does the source list for `C[C@@H](CO)NC(=O)[C@@H]1C=C2c3cccc4[nH]cc(c34)C[C@H]2N(C)C1` [ST057158]?
**A.** (-)Sm.5HTRL fold change [1, 8]: 1.1 fold change; (+) Sm.5HTRL fold change (Sm.5HTRL [2]): 15.5169 fold change

**Q.** How did the “Sm.5HTRL antagonism (% of control 5-HT response)” value (Sm.5HTRL [2]; [9]) turn out when `O=c1ccc2nc3ccc(O)cc3oc-2c1` [compound 12097] was run?
**A.** Its value is 0.7238 % of control 5-HT response.

**Q.** What about the fold induction at 10 µM (Sm.5HTRL [3]) of the same compound?
**A.** Its fold induction at 10 µM is 0.635.

**Q.** How did the EC50 ([4]; Schistosoma mansoni, ± 95% confidence interval, read-out: EC50 for stimulation of adult schistosome movement) turn out when `NCCc1c[nH]c2ccc(O)cc12` [5-HT, serotonin] was run?
**A.** The EC50 was 51.6 ± 3 µM.

**Q.** What about the “effect on adult worm movement” value ([4]; 5-HT at 200 µM) of the same compound?
**A.** Its value is “increased worm movement”.

**Q.** And the EC50 (Sh.5HTR)?
**A.** Its EC50 is 0.0036 ± 0.0003 µM.

**Q.** And the EC50 (Sm.5HTRL [3])?
**A.** Its EC50 is 0.076 ± 0.001 µM.

**Q.** What about the fold induction at 1 µM (Sm.5HTRL [3]; HEK293, read-out: elevation in luminescence values (fold increase)) of the same compound?
**A.** Its fold induction at 1 µM is 70 to 110.

**Q.** What about the “reduction of egg laying ex vivo” value [5] of the same compound?
**A.** Its value is 82.4 ± 2.2 % reduction.

**Q.** What about the “effect on movement of juvenile worms” value (immature S. mansoni) of the same compound?
**A.** The value was “stimulated movement of juvenile worms”.

**Q.** What about the EC50 (Sj.5HTR) of the same compound?
**A.** Its EC50 is 0.003 ± 0.0003 µM.

**Q.** With `O=C(C1CCCCC1)N1CC(=O)N2CCc3ccccc3C2C1` (stereo not drawn) [PZQ, praziquantel] as the compound, how does the “effect on gene products associated with HSC activation” value (liver signaling pathways) read?
**A.** The value was “little to no effect”.

**Q.** What about the “lethality through 15 weeks” value ([6]; PZQ 50 mg/kg for one week from 42 days p.i.) of the same compound?
**A.** The value was “no observed lethality”.

**Q.** What about the “reduction in intestinal egg burden” value ([6]; ergotamine 60 mg/kg twice daily or PZQ 50 mg/kg, 42–49 days p.i.) of the same compound?
**A.** Its value is 99.9 ± 0.1%.

**Q.** What about the “effect on hepatosplenomegaly” value ([6]; one week treatment starting at 42 days p.i.) of the same compound?
**A.** The value was “did not prevent spleen and liver enlargement”.

**Q.** What about the “effect on immature infection” value [7] of the same compound?
**A.** The value was “lack of effect”.

**Q.** Which “(-)Sm.5HTRL fold change” value [1, 8] does the source give for `C=C[C@@]1(C)CC(=O)[C@@]2(O)[C@](C)(O1)[C@@H](OC(C)=O)[C@@H](O)C1C(C)(C)CC[C@H](O)[C@@]12C` (stereo partly drawn) [ST095786] here?
**A.** The value was 121.8 fold change.

**Q.** What about the “(+) Sm.5HTRL fold change” value (Sm.5HTRL [2]; agonist hit validation) of the same compound?
**A.** Its value is 95.4625 fold change.

**Q.** `CNC[C@H](O)c1ccc(O)c(O)c1` [ST069368] was tested. Which “(-)Sm.5HTRL fold change” value [1, 8] did it give?
**A.** The value was 94.1 fold change.

**Q.** What about the “(+) Sm.5HTRL fold change” value (Sm.5HTRL [2]; agonist hit validation) of the same compound?
**A.** The value was 60.6229 fold change.

**Q.** What does the source list for `Cc1ccc2[nH]c(CCN)cc2c1.Cl` [ST070930]?
**A.** (-)Sm.5HTRL fold change [1, 8]: 1.1 fold change; (+) Sm.5HTRL fold change (Sm.5HTRL [2]; agonist hit validation): 17.0489 fold change

**Q.** What does the source list for `CNCC(O)c1ccc(O)cc1` (stereo not drawn) [ST095769]?
**A.** (-)Sm.5HTRL fold change [1, 8]: 2.535 fold change; (+) Sm.5HTRL fold change (Sm.5HTRL [2]; agonist hit validation): 11.737 fold change

**Q.** How did the “(-)Sm.5HTRL fold change” value [1, 8] turn out when `Nc1ncnc2c1ncn2[C@@H]1O[C@H](COP(=O)(O)OP(=O)(O)O)[C@@H](O)[C@H]1O` [ST057097] was run?
**A.** Its value is 1.0 fold change.

**Q.** What about the “(+) Sm.5HTRL fold change” value (Sm.5HTRL [2]; agonist hit validation) of the same compound?
**A.** Its value is 11.9433 fold change.

**Q.** With `CC1=CC(=O)c2c(O)cccc2C1=O` [ST069355] as the compound, how does the “(+) Sm.5HTR 5-HT response (% of DMSO)” value (Sm.5HTRL [2]) read?
**A.** The value was 0.03935 % of DMSO.

**Q.** Which “(-)Sm.5HTRL fold change” value [1, 8] does the source give for `COc1cc(C(=O)NCCOc2ccccc2C)cc(OC)c1OC` [ST005872] here?
**A.** Its value is 0.7305 fold change.

**Q.** And the “(+) Sm.5HTRL fold change” value (Sm.5HTRL [2]; agonist hit validation)?
**A.** The value was 10.4008 fold change.

**Q.** Which results are given for `COc1ccc(C2CC(=O)c3c(O)cc(OC4OC(CO)C(O)C(O)C4OC4OC(C)C(O)C(O)C4O)cc3O2)cc1O` (stereo not drawn) [compound 31048]?
**A.** Sm.5HTRL antagonism (% of control 5-HT response) (Sm.5HTRL [2]; [9]): 1.138 % of control 5-HT response; fold induction at 10 µM (Sm.5HTRL [3]): 1.32

**Q.** How did the “Sm.5HTRL antagonism (% of control 5-HT response)” value (Sm.5HTRL [2]; [9]) turn out when `COc1cc(C)c2c(c1C=O)Oc1c(c(C)c(O)c3c1C(O)OC3=O)OC2=O` (stereo not drawn) [compound 87511] was run?
**A.** Its value is 0.8125 % of control 5-HT response.

**Q.** What about the fold induction at 10 µM (Sm.5HTRL [3]) of the same compound?
**A.** The fold induction at 10 µM was 0.635.

**Q.** What does the source list for `Br.Oc1ccc(CC2NCCc3cc(O)c(O)cc32)cc1O` (stereo not drawn) [ST056944]?
**A.** (-)Sm.5HTRL fold change [1]: 56.3 fold change; (+) Sm.5HTRL fold change (Sm.5HTRL [2]; hek293 cells): 28.3016 fold change

**Q.** Which “(-)Sm.5HTRL fold change” value [1] does the source give for `CN1CC(C(=O)NC2(C)OC3(O)C4CCCN4C(=O)C(Cc4ccccc4)N3C2=O)C=C2c3cccc4[nH]cc(c34)CC21.O=C(O)C(O)C(O)C(=O)O` (stereo not drawn) [ST072185] here?
**A.** The value was 1.0 fold change.

**Q.** What about the “(+) Sm.5HTRL fold change” value (Sm.5HTRL [2]) of the same compound?
**A.** Its value is 29.8904 fold change.

**Q.** `CCN1C[C@]2(COC)[C@H](O)C[C@H](OC)[C@]34C1[C@H]([C@H](OC)[C@H]23)[C@]1(OC(C)=O)[C@H]2[C@@H](OC(=O)c3ccccc3)[C@](O)(C[C@H]24)[C@@H](OC)[C@@H]1O` [compound 56464] was tested. Which “Sm.5HTRL agonism (fold change luminescence)” value (Sm.5HTRL [2]) did it give?
**A.** The value was 1.997 fold change luminescence.

**Q.** What about the “Sm.5HTRL antagonism (% of control 5-HT response)” value (Sm.5HTRL [2]) of the same compound?
**A.** The value was 1.042 % of control 5-HT response.

**Q.** Which results are given for `NCCc1c[nH]c2cccc(OC(=O)c3ccc(C(=O)O)cc3)c12` [ST070282]?
**A.** (-)Sm.5HTRL fold change [1, 8]: 1.366 fold change; (+) Sm.5HTRL fold change (Sm.5HTRL [2]; hek293 cells): 12.6864 fold change
